Measurements: PubChem BioAssay (NCI)
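Here, GI50 denotes the concentration required for 50% inhibition of growth. Definition used: TGI = concentration required for complete inhibition of growth.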

Columns and labels:
Assay in all cases: DTP human tumour cell line panel, 384-well format
[1] = test system: RXF 393 renal
[2] = test system: KM12 colon
[3] = test system: HOP-62 NSCLC
[4] = test system: HCC-2998 colon
[5] = test system: MOLT-4 leukemia
[6] = test system: PC-3 prostate
[7] = test system: CCRF-CEM leukemia
[8] = test system: HL-60(TB) leukemia
[9] = test system: MDA-MB-468 breast
[10] = test system: MALME-3M melanoma
[11] = test system: A498 renal
[12] = test system: MDA-MB-231 breast
[13] = test system: SF-295 CNS
[14] = test system: NCI-H226 lung
[15] = test system: LOX IMVI melanoma
[16] = test system: CAKI-1 renal
[17] = test system: K-562 leukemia
[18] = test system: NCI-H23 lung
[19] = test system: SK-MEL-2 melanoma
[20] = test system: 786-0 renal
[21] = test system: HS 578T breast
[22] = test system: SK-MEL-28 melanoma
[23] = test system: SW-620 colon
[24] = test system: SNB-19 CNS
[25] = test system: SK-MEL-5 melanoma
[26] = test system: SF-268 CNS
[27] = test system: MCF7 breast
[28] = test system: UACC-257 melanoma
[29] = test system: RPMI-8226 leukemia
[30] = test system: ACHN renal
[31] = test system: SN12C renal
[32] = test system: SK-OV-3 ovarian
[33] = test system: HOP-92 NSCLC
[34] = test system: M14 melanoma
[35] = test system: TK-10 renal
[36] = test system: NCI-H322M lung
[37] = test system: COLO 205 colon
[38] = test system: UO-31 renal
[39] = test system: U251 glioblastoma
[40] = test system: EKVX NSCLC
[41] = test system: A549 NSCLC
[42] = test system: NCI-H522 lung
[43] = test system: IGROV1 ovarian
[44] = test system: DU-145 prostate
[45] = test system: UACC-62 melanoma
[46] = test system: OVCAR-5 ovarian
[47] = test system: HCT-15 colon
[48] = test system: OVCAR-3 ovarian
[49] = test system: BT-549 breast
[50] = test system: SR leukemia
[51] = test system: HCT-116 colon
[52] = test system: T-47D breast
[53] = test system: SNB-75 CNS
[54] = test system: HT29 colon
[55] = test system: NCI/ADR-RES ovarian
[56] = test system: SF-539 CNS
[57] = test system: OVCAR-4 ovarian
[58] = test system: MDA-MB-435 melanoma
[59] = test system: NCI-H460 NSCLC
[60] = test system: OVCAR-8 ovarian

## COc1cc2c(cc1F)C(c1ccccc1Cl)=Nc1c(n[nH]c1C)N2
[1]
  GI50: 207 nM
  TGI: 1230 nM
[2]
  GI50: 274 nM
  TGI: 12100 nM
[3]
  GI50: 521 nM
  TGI: 14100 nM
[4]
  GI50: 108 nM
  TGI: 16700 nM
[5]
  GI50: 146 nM
  TGI: 283 nM
[6]
  GI50: 709 nM
  TGI: 21100 nM
[7]
  GI50: 145 nM
  TGI: 288 nM
[8]
  GI50: 166 nM
  TGI: 306 nM
[9]
  GI50: 180 nM
  TGI: 387 nM
[10]
  GI50: 12600 nM
  TGI: 25200 nM
[11]
  GI50: 498 nM
  TGI: 17200 nM
[12]
  GI50: 650 nM
  TGI: 16800 nM
[13]
  GI50: 452 nM
  TGI: 16200 nM
[14]
  GI50: 688 nM
  TGI: 2660 nM
[15]
  GI50: 528 nM
  TGI: 8780 nM
[16]
  GI50: 512 nM
  TGI: 4160 nM
[17]
  GI50: 252 nM
  TGI: 13600 nM
[18]
  GI50: 690 nM
  TGI: 16500 nM
[19]
  GI50: 459 nM
  TGI: 4310 nM
[20]
  GI50: 508 nM
  TGI: 11900 nM
[21]
  GI50: 190 nM
  TGI: 464 nM
[22]
  GI50: 778 nM
  TGI: 18600 nM
[23]
  GI50: 336 nM
  TGI: 11100 nM
[24]
  GI50: 726 nM
  TGI: 15100 nM
[25]
  GI50: 236 nM
  TGI: 12000 nM
[26]
  GI50: 370 nM
  TGI: 1770 nM
[27]
  GI50: 502 nM
  TGI: 19800 nM
[28]
  GI50: 11400 nM
  TGI: 23500 nM
[29]
  GI50: 253 nM
  TGI: 7320 nM
[30]
  GI50: 1350 nM
  TGI: 13300 nM
[31]
  GI50: 632 nM
  TGI: 14200 nM
[32]
  GI50: 757 nM
  TGI: 16400 nM
[33]
  GI50: 960 nM
  TGI: 8170 nM
[34]
  GI50: 339 nM
  TGI: 15900 nM
[35]
  GI50: 860 nM
  TGI: 10300 nM
[36]
  GI50: 4440 nM
  TGI: 19900 nM
[37]
  GI50: 367 nM
  TGI: 12100 nM
[38]
  GI50: 781 nM
  TGI: 2080 nM
[39]
  GI50: 453 nM
  TGI: 12300 nM
[40]
  GI50: 597 nM
  TGI: 13800 nM
[41]
  GI50: 599 nM
  TGI: 15600 nM
[42]
  GI50: 202 nM
  TGI: 506 nM
[43]
  GI50: 679 nM
  TGI: 9690 nM
[44]
  GI50: 2020 nM
  TGI: 13000 nM
[45]
  GI50: 334 nM
  TGI: 12000 nM
[46]
  GI50: 5320 nM
  TGI: 19800 nM
[47]
  GI50: 304 nM
  TGI: 19500 nM
[48]
  GI50: 225 nM
  TGI: 823 nM
[49]
  GI50: 231 nM
  TGI: 1080 nM
[50]
  GI50: 103 nM
  TGI: 238 nM
[51]
  GI50: 393 nM
  TGI: 15100 nM
[52]
  GI50: 794 nM
  TGI: 17700 nM
[53]
  GI50: 320 nM
  TGI: 1390 nM
[54]
  GI50: 313 nM
  TGI: 12500 nM
[55]
  GI50: 304 nM
  TGI: 16000 nM
[56]
  GI50: 351 nM
  TGI: 1500 nM
[57]
  GI50: 2260 nM
  TGI: 19800 nM

## N#CCCNc1nonc1-c1nc2ccccc2n1CC(=O)c1ccc(NC(=O)[C@@H](N)CCCCN)cc1
[58]
  GI50: 19.4 nM
  TGI: 38.3 nM
[1]
  GI50: 20.8 nM
  TGI: 53 nM
[3]
  GI50: 38.8 nM
  TGI: 1020 nM
[4]
  GI50: 24.9 nM
  TGI: 74.1 nM
[5]
  GI50: 16.8 nM
  TGI: 31.1 nM
[6]
  GI50: 38.9 nM
  TGI: 948 nM
[7]
  GI50: 18.3 nM
  TGI: 33.1 nM
[8]
  GI50: 20.7 nM
  TGI: 35.8 nM
[9]
  GI50: 19.9 nM
  TGI: 46.1 nM
[10]
  GI50: 34.8 nM
  TGI: 163 nM
[11]
  GI50: 30.6 nM
  TGI: > 100000 nM
[12]
  GI50: 135 nM
  TGI: 78600 nM
[13]
  GI50: 26.3 nM
  TGI: 71.4 nM
[14]
  GI50: 90.3 nM
  TGI: 41900 nM
[59]
  GI50: 22.1 nM
  TGI: 47.3 nM
[15]
  GI50: 46 nM
  TGI: 407 nM
[16]
  GI50: 41.1 nM
  TGI: > 100000 nM
[17]
  GI50: 18.7 nM
  TGI: 38.8 nM
[18]
  GI50: 21.8 nM
  TGI: 52.6 nM
[20]
  GI50: 36.3 nM
  TGI: 422 nM
[21]
  GI50: 17.4 nM
  TGI: 36.9 nM
[22]
  GI50: 78.1 nM
  TGI: 46300 nM
[23]
  GI50: 42.4 nM
  TGI: 88400 nM
[24]
  GI50: 37 nM
  TGI: > 100000 nM
[25]
  GI50: 20.9 nM
  TGI: 57.1 nM
[26]
  GI50: 13.6 nM
  TGI: 47.4 nM
[27]
  GI50: 39.4 nM
  TGI: 3270 nM
[28]
  GI50: 59.1 nM
  TGI: 22600 nM
[29]
  GI50: 19.2 nM
  TGI: 35.4 nM
[30]
  GI50: 63.6 nM
  TGI: > 100000 nM
[31]
  GI50: 45.2 nM
  TGI: 2170 nM
[32]
  GI50: 39.9 nM
  TGI: 16200 nM
[33]
  GI50: 51.5 nM
  TGI: 884 nM
[34]
  GI50: 19.9 nM
  TGI: 46.5 nM
[35]
  GI50: 83.4 nM
  TGI: 93000 nM
[36]
  GI50: 73 nM
  TGI: > 100000 nM
[37]
  GI50: 27.8 nM
  TGI: 78.3 nM
[38]
  GI50: 60.1 nM
  TGI: 11300 nM
[39]
  GI50: 32.8 nM
  TGI: 148 nM
[40]
  GI50: 54.5 nM
  TGI: > 100000 nM
[41]
  GI50: 36.9 nM
  TGI: > 100000 nM
[42]
  GI50: 17.7 nM
  TGI: 37 nM
[43]
  GI50: 43.5 nM
  TGI: > 100000 nM
[44]
  GI50: 37.5 nM
  TGI: 640 nM
[60]
  GI50: 32 nM
  TGI: 117 nM
[45]
  GI50: 31 nM
  TGI: 344 nM
[46]
  GI50: 120 nM
  TGI: > 100000 nM
[47]
  GI50: 30 nM
  TGI: 103 nM
[48]
  GI50: 19.9 nM
  TGI: 45.7 nM
[49]
  GI50: 22.2 nM
  TGI: 54 nM
[51]
  GI50: 33.3 nM
  TGI: 192 nM
[53]
  GI50: 38.7 nM
  TGI: 66600 nM
[55]
  GI50: 18.2 nM
  TGI: 35.1 nM
[56]
  GI50: 20 nM
  TGI: 45.7 nM
[57]
  GI50: 86.1 nM
  TGI: 66300 nM
